From US12486260B2, “Indazolyl-isoxazole derivatives for the treatment of diseases such as cancer” (Merck Patent GmbH, priority 2019, dated 2025)

How the values were obtained:
[1] = molecular target: T1, mutant cKIT (Δ560-576 and V654A) in GIST430/654 cell line (Homo sapiens, UniProt P10721, DEL560-576/V654A); experiment: cellular testing of cKIT mutant inhibitors: cKIT autophosphorylation in GIST430/654 cells (Luminex); format: cell-based; settings: Table 2, isoxazole vs corresponding triazole derivatives; phospho-Y307-cKIT, 45 min; read-out: Inhibition (IC50) of GIST 430/654
T1 construct: GIST430/654 cell line expressing mutated constitutively active cKIT receptor tyrosine kinase; endogenous in cells; host or cells: GIST430/654
T1 sequence (P10721 with tags, fused parts or gaps DEL560-576/V654A): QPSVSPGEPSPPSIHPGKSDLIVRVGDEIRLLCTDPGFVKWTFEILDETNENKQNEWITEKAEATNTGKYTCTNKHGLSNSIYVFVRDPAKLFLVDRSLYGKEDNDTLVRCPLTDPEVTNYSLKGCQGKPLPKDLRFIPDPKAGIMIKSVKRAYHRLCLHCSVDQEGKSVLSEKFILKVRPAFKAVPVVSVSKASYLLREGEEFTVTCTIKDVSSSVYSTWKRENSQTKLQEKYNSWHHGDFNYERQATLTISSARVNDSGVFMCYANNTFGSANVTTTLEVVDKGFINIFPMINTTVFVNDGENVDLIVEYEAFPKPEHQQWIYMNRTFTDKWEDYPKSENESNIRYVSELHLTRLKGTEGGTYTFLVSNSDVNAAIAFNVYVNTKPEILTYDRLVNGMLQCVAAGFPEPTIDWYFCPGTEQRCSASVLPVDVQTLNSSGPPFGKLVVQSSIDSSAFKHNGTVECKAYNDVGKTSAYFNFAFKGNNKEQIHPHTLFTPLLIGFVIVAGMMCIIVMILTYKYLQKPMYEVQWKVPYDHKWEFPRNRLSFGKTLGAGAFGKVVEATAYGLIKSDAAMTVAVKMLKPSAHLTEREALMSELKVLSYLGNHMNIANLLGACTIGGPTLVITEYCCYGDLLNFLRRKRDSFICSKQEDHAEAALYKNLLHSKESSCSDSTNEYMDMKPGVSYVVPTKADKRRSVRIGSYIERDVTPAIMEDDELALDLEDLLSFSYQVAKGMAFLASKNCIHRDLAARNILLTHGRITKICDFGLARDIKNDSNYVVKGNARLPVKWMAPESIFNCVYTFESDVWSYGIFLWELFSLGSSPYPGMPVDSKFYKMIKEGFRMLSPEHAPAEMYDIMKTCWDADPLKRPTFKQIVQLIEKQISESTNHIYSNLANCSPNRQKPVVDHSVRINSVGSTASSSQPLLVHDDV
Description: Assay Principle for Cellular Testing of cKIT Mutant Inhibitors
The GIST430/654 cell line expressing mutated constitutively active cKIT receptor tyrosine kinase (Δ560-576 and V654A) was employed for assessing cellular potency of compounds. Cellular activity of mutant cKIT was determined by the degree of cKIT autophosphorylation at tyrosine 307 using a Luminex-based bead assay. GIST430/654 cells were plated with 25,000 cells per well of a 96-well plate in 100 μl medium (85% IMDM/15% FCS supplemented with 100 nM Imatinib). At the following day compounds were added in a serial dilution for 45 min. Then, cells were lysed with 90 μl lysis buffer (20 mM Hepes pH 7.5, 200 mM NaCl, 1.5 mM MgCl2×6H2O, 0.4 mM EDTA, 1% Triton-X-100, 1% Phosphatase-Inhibitor II, 20 mM β-Glycerolphosphat, 0.1% Protease-Inhibitor Cocktail III, 0.01% Benzonase) und lysates were cleared by centrifugation through a 96-well filter plate (0.65 μm). Samples were incubated with Luminex-beads which were coupled with an anti-total cKIT antibody overnight at 4° C. under gentle agitation. […] The amount of phospho-Y307-cKIT was determined in a Luminex 200 instrument measuring 100 events per well within 60 seconds.
Counts from samples treated with compounds were calculated as percent of control from solvent treated (0.3% DMSO) samples. Dose-response curves were fitted and IC50 values were determined using Genedata Screener software.

c-Kit(V654A) = molecular target: T2, c-Kit(V654A) (Homo sapiens, UniProt P10721, V654A); experiment: c-Kit(V654A) kinase assay (33P-ATP filter binding); format: biochemical; settings: Table 2, isoxazole vs corresponding triazole derivatives; 200 μM ATP, 40 minutes; read-out: Inhibition (IC50) of c-Kit (V654A)
T2 construct: amino acids 544-end; GST (N)
T2 sequence (P10721 544-976 V654A): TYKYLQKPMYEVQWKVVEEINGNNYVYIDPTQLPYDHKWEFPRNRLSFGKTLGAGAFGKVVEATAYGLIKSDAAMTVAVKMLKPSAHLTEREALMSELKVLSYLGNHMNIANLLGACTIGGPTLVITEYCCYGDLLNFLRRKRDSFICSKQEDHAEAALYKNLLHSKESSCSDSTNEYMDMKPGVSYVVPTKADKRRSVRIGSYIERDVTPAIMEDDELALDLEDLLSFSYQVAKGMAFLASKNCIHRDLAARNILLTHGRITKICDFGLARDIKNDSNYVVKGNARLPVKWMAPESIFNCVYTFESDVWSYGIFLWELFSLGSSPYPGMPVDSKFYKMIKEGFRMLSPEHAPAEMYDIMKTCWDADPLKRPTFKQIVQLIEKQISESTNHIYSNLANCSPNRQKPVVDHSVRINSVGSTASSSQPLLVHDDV
Description: • HPLC/MS: Agilent 1200/6100 • eluent A: water+0.05% formic acid • eluent B: acetonitrile+0.04% formic acid • column: Chromolith HR RP-18e; 50-4.6 mm • flow rate: 3.3 ml/min • gradient: 0%→100% B: 0.0→2.0 min 100% B: 2.0→2.5 min • UV detection: 220 nm • MS detection: 65-800 amu positive HPLC/MS Conditions B: • HPLC/MS: Agilent 1200/6100 • eluent A: water+0.05% formic acid • eluent B: acetonitrile+0.04% formic acid • column: Kinetex XB-C18; 2.6 μm; 50-4.6 mm • flow rate: 2.5 ml/min • gradient: 0%→100% B: 0.0→1.4 min 100% B: 1.4→2.0 min • UV detection: 220 nm • MS detection: 65-800 amu positive UPLC/MS Conditions: • UPLC/MS: Waters Acquity/SQD • eluent A: water+0.05% formic acid • eluent B: acetonitrile+0.04% formic acid • column: Kinetex XB-C18; 1.7 μm; 50-2.1 mm • flow rate: 0.9 ml/min • gradient: 2%→100% B: 0.0→1.0 min 100% B: 1.0→1.3 min • UV detection: 220 nm/254 nm/MaxPlot/TotalPlot • MS detection: 61-800 amu positive Assays c-Kit(V654A) Assay:
c-Kit(V654A) (N-terminal GST-tagged, recombinant human c-Kit, amino acids 544-end containing the V654A mutation) is incubated with 8 mM MOPS pH 7.0, 0.2 mM EDTA, 250 μM GGMEDIYEFMGGKKK, 10 mM MgAcetate and [gamma-33P-ATP] (specific activity approx. 500 cpm/pmol, concentration 200 μM). The reaction is initiated by the addition of the MgATP mix. […]

| SMILES | IC50 [1] [µM] | IC50 (c-Kit(V654A)) [µM] |
| --- | --- | --- |
| COCCOc1cc2[nH]nc(-c3cn(-c4ccc(C(=O)N5CC(N6CCOCC6)C5)cc4)nn3)c2cc1F | 0.61 | 0.0011 |
| COCCOc1cc2[nH]nc(-c3cn(-c4ccc(C(=O)N5CC[C@@H]5C(C)(C)O)cc4)nn3)c2cc1F | 0.22 | 0.0051 |
